Reference: article PMC6364417, “Kinase inhibitor library screening identifies synergistic drug combinations effective in sensitive and resistant melanoma cells” (Journal of Experimental & Clinical Cancer Research : CR, 2019)
Read-outs that look alike come from different tables or passages of the source.

Tests used:
Assay in all cases: Kinase inhibitor library screening, PrestoBlue cell viability, 1 or 10 μM, 72 h
501Mel cells (parental) = conditions: for Cell viability in kinase inhibitor library screening, 501Mel Parental, 1μΜ / Cell viability in kinase inhibitor library screening, 501Mel Parental, 10μΜ: in %
How it was run: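 Single-point screen at two doses over three days. Parental and BRAF-inhibitor-resistant sublines (XP: Vemurafenib; GP: Dabrafenib) were assessed by PrestoBlue viability, reported relative to untreated cells.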

[1] = system: 501Mel-GP cells (Dabrafenib-resistant); conditions: for Cell viability in kinase inhibitor library screening, 501Mel GP, 1μΜ / Cell viability in kinase inhibitor library screening, 501Mel GP, 10μΜ: in %
[2] = system: 501Mel-XP cells (Vemurafenib-resistant); conditions: for Cell viability in kinase inhibitor library screening, 501Mel XP, 1μΜ / Cell viability in kinase inhibitor library screening, 501Mel XP, 10μΜ: in %
A375 cells (parental) = system: A375 cells (parental)
[3] = system: A375-GP cells (Dabrafenib-resistant)
[4] = system: A375-XP cells (Vemurafenib-resistant)
IGR37 cells (parental) = conditions: for Cell viability in kinase inhibitor library screening, IGR37 Parental, 1μΜ / Cell viability in kinase inhibitor library screening, IGR37 Parental, 10μΜ: in %
[5] = system: IGR37-GP cells (Dabrafenib-resistant); conditions: for Cell viability in kinase inhibitor library screening, IGR37 GP, 1μΜ: in %
[6] = system: IGR37-XP cells (Vemurafenib-resistant); conditions: for Cell viability in kinase inhibitor library screening, IGR37 XP, 1μΜ: in %

CN1CCN(C2CCN(C(=O)Nc3cc(Oc4ccc(NC(=O)C5(C(=O)Nc6ccc(F)cc6)CC5)c(F)c4)ccn3)CC2)CC1 [Golvatinib (E7050)] was tested, and the “cell viability (kinase inhibitor library screening)” value (501Mel cells (parental); 501Mel Parental, 1μΜ, 72 h) was 96.5%, the “cell viability (kinase inhibitor library screening)” value (501Mel cells (parental); 501Mel Parental, 10μΜ, 72 h) was 0.148% and the “cell viability (kinase inhibitor library screening)” value ([1]; 501Mel GP, 1μΜ, 72 h) was 81.2%. The “cell viability (kinase inhibitor library screening)” value ([1]; 501Mel GP, 10μΜ, 72 h) was -0.26%, the “cell viability (kinase inhibitor library screening)” value ([2]; 501Mel XP, 1μΜ, 72 h) was 66.2% and the “cell viability (kinase inhibitor library screening)” value ([2]; 501Mel XP, 10μΜ, 72 h) was -0.363%. For the same molecule, the “cell viability (kinase inhibitor library screening)” value (A375 cells (parental); A375 Parental, 10μΜ, 72 h) was 70.5%, the “cell viability (kinase inhibitor library screening)” value (A375 cells (parental); A375 Parental, 1μΜ, 72 h) was 93.1% and the “cell viability (kinase inhibitor library screening)” value ([3]; A375 GP, 1μΜ, 72 h) was 103.0%. The “cell viability (kinase inhibitor library screening)” value ([3]; A375 GP, 10μΜ, 72 h) was 53.0%, the “cell viability (kinase inhibitor library screening)” value ([4]; A375 XP, 1μΜ, 72 h) was 99.6% and the “cell viability (kinase inhibitor library screening)” value ([4]; A375 XP, 10μΜ, 72 h) was 65.0%. The “cell viability (kinase inhibitor library screening)” value (IGR37 cells (parental); IGR37 Parental, 1μΜ, 72 h) was 99.0%, the “cell viability (kinase inhibitor library screening)” value (IGR37 cells (parental); IGR37 Parental, 10μΜ, 72 h) was 18.3% and the “cell viability (kinase inhibitor library screening)” value ([5]; IGR37 GP, 1μΜ, 72 h) was 92.1%. The “cell viability (kinase inhibitor library screening)” value ([5]; IGR37 GP, 10μΜ, 72 h) was 49.6%, the “cell viability (kinase inhibitor library screening)” value ([6]; IGR37 XP, 1μΜ, 72 h) was 95.2% and the “cell viability (kinase inhibitor library screening)” value ([6]; IGR37 XP, 10μΜ, 72 h) was 10.4%.
In the case of COc1ccc(S(=O)(=O)N(C(C)=O)c2ccccc2/C=C/c2cc[n+]([O-])cc2)cc1 [HMN-214], the “Cell viability in kinase inhibitor library screening, 501Mel Parental, 1μΜ” value (501Mel cells (parental)) is reported as 17.6, the “Cell viability in kinase inhibitor library screening, 501Mel Parental, 10μΜ” value (501Mel cells (parental)) is reported as 20.7 and the “Cell viability in kinase inhibitor library screening, 501Mel GP, 1μΜ” value [1] is reported as 21.4. The “Cell viability in kinase inhibitor library screening, 501Mel GP, 10μΜ” value [1] was 22.7, the “Cell viability in kinase inhibitor library screening, 501Mel XP, 1μΜ” value [2] was 14.9 and the “Cell viability in kinase inhibitor library screening, 501Mel XP, 10μΜ” value [2] was 12.4. For the same molecule, the “Cell viability in kinase inhibitor library screening, A375 Parental, 1μΜ” value (A375 cells (parental)) was 34.0, the “Cell viability in kinase inhibitor library screening, A375 Parental, 10μΜ” value (A375 cells (parental)) was 23.3 and the “Cell viability in kinase inhibitor library screening, A375 GP, 1μΜ” value [3] was 42.6. For the same molecule, the “Cell viability in kinase inhibitor library screening, A375 GP, 10μΜ” value [3] was 20.9, the “Cell viability in kinase inhibitor library screening, A375 XP, 1μΜ” value [4] was 37.9 and the “Cell viability in kinase inhibitor library screening, A375 XP, 10μΜ” value [4] was 18.1. For the same molecule, the “Cell viability in kinase inhibitor library screening, IGR37 Parental, 1μΜ” value (IGR37 cells (parental)) was 19.8, the “Cell viability in kinase inhibitor library screening, IGR37 Parental, 10μΜ” value (IGR37 cells (parental)) was 16.1 and the Cell viability in kinase inhibitor library screening, IGR37 GP, 10μΜ [5] was 66.9%. For the same molecule, the “Cell viability in kinase inhibitor library screening, IGR37 GP, 1μΜ” value [5] was 69.1, the Cell viability in kinase inhibitor library screening, IGR37 XP, 10μΜ [6] was 28.3% and the “Cell viability in kinase inhibitor library screening, IGR37 XP, 1μΜ” value [6] was 57.1.
With CNC(=O)c1ccc(-c2cnc3ncc(Cc4ccc5ncccc5c4)n3n2)cc1F [INCB28060] the “cell viability (kinase inhibitor library screening)” value (501Mel cells (parental); 501Mel Parental, 1μΜ, 72 h) was 99.4%, the “cell viability (kinase inhibitor library screening)” value (501Mel cells (parental); 501Mel Parental, 10μΜ, 72 h) was 93.5% and the “cell viability (kinase inhibitor library screening)” value ([1]; 501Mel GP, 1μΜ, 72 h) was 81.7%. For the same molecule, the “cell viability (kinase inhibitor library screening)” value ([1]; 501Mel GP, 10μΜ, 72 h) was 67.0%, the “cell viability (kinase inhibitor library screening)” value ([2]; 501Mel XP, 1μΜ, 72 h) was 68.2% and the “cell viability (kinase inhibitor library screening)” value ([2]; 501Mel XP, 10μΜ, 72 h) was 62.9%. The “cell viability (kinase inhibitor library screening)” value (A375 cells (parental); A375 Parental, 1μΜ, 72 h) was 103.1%, the “cell viability (kinase inhibitor library screening)” value ([3]; A375 GP, 1μΜ, 72 h) was 103.9% and the “cell viability (kinase inhibitor library screening)” value ([3]; A375 GP, 10μΜ, 72 h) was 95.7%. For the same molecule, the “cell viability (kinase inhibitor library screening)” value ([4]; A375 XP, 1μΜ, 72 h) was 106.9%, the “cell viability (kinase inhibitor library screening)” value ([4]; A375 XP, 10μΜ, 72 h) was 103.3% and the “cell viability (kinase inhibitor library screening)” value (IGR37 cells (parental); IGR37 Parental, 1μΜ, 72 h) was 106.9%. For the same molecule, the “cell viability (kinase inhibitor library screening)” value (IGR37 cells (parental); IGR37 Parental, 10μΜ, 72 h) was 100.3%, the “cell viability (kinase inhibitor library screening)” value ([5]; IGR37 GP, 1μΜ, 72 h) was 97.1% and the “cell viability (kinase inhibitor library screening)” value ([5]; IGR37 GP, 10μΜ, 72 h) was 85.7%. For the same molecule, the “cell viability (kinase inhibitor library screening)” value ([6]; IGR37 XP, 1μΜ, 72 h) was 98.3% and the “cell viability (kinase inhibitor library screening)” value ([6]; IGR37 XP, 10μΜ, 72 h) was 47.6%.
In the case of CC(C)n1nc(-c2ccc3oc(N)nc3c2)c2c(N)ncnc21 [INK 128], the “Cell viability in kinase inhibitor library screening, 501Mel Parental, 1μΜ” value (501Mel cells (parental); 501Mel Parental, 1μΜ, 72 h) is reported as 15.4, the “Cell viability in kinase inhibitor library screening, 501Mel Parental, 10μΜ” value (501Mel cells (parental); 501Mel Parental, 10μΜ, 72 h) is reported as 5.9 and the “Cell viability in kinase inhibitor library screening, 501Mel GP, 1μΜ” value ([1]; 501Mel GP, 1μΜ, 72 h) is reported as 17.2. The “Cell viability in kinase inhibitor library screening, 501Mel GP, 10μΜ” value ([1]; 501Mel GP, 10μΜ, 72 h) was 6.6, the “Cell viability in kinase inhibitor library screening, 501Mel XP, 1μΜ” value ([2]; 501Mel XP, 1μΜ, 72 h) was 11.6 and the “Cell viability in kinase inhibitor library screening, 501Mel XP, 10μΜ” value ([2]; 501Mel XP, 10μΜ, 72 h) was 2.4. For the same molecule, the “Cell viability in kinase inhibitor library screening, A375 Parental, 10μΜ” value (A375 cells (parental); A375 Parental, 10μΜ, 72 h) was 13.5, the “Cell viability in kinase inhibitor library screening, A375 Parental, 1μΜ” value (A375 cells (parental); A375 Parental, 1μΜ, 72 h) was 19.9 and the “Cell viability in kinase inhibitor library screening, A375 GP, 1μΜ” value ([3]; A375 GP, 1μΜ, 72 h) was 21.6. The “Cell viability in kinase inhibitor library screening, A375 GP, 10μΜ” value ([3]; A375 GP, 10μΜ, 72 h) was 13.0, the “Cell viability in kinase inhibitor library screening, A375 XP, 1μΜ” value ([4]; A375 XP, 1μΜ, 72 h) was 19.9 and the “Cell viability in kinase inhibitor library screening, A375 XP, 10μΜ” value ([4]; A375 XP, 10μΜ, 72 h) was 12.7. For the same molecule, the “Cell viability in kinase inhibitor library screening, IGR37 Parental, 1μΜ” value (IGR37 cells (parental); IGR37 Parental, 1μΜ, 72 h) was 22.4, the “Cell viability in kinase inhibitor library screening, IGR37 Parental, 10μΜ” value (IGR37 cells (parental); IGR37 Parental, 10μΜ, 72 h) was 13.5 and the Cell viability in kinase inhibitor library screening, IGR37 GP, 10μΜ ([5]; IGR37 GP, 10μΜ, 72 h) was 16.8%. For the same molecule, the “Cell viability in kinase inhibitor library screening, IGR37 GP, 1μΜ” value ([5]; IGR37 GP, 1μΜ, 72 h) was 44.7, the Cell viability in kinase inhibitor library screening, IGR37 XP, 10μΜ ([6]; IGR37 XP, 10μΜ, 72 h) was 6.1% and the “Cell viability in kinase inhibitor library screening, IGR37 XP, 1μΜ” value ([6]; IGR37 XP, 1μΜ, 72 h) was 27.3.
